Calls of active or inactive are those of the source. No cut-off for these calls is given here.
What was measured:
[1] = test system: CWR22R; assay: Inhibition of cell viability in ARV7-positive human 22Rv1 cells by Steady-Glo luciferase assay; type: functional, cell-based
[2] = test system: PC-3; assay: Inhibition of cell viability in AR-independent human PC-3 cells by Steady-Glo luciferase assay; type: functional, cell-based
[3] = Drug uptake in C57BL6 mouse plasma at 25 mg/kg, po via gavage measured for 4 hrs by LC-MS/MS analysis; type: ADME, organism-based; settings: in vivo
[4] = C0 in Sprague-Dawley rat at 1.8 mg/kg, iv measured for 24 hrs by LC-MS/MS analysis; type: ADME, organism-based; settings: in vivo
[5] = Elimination rate constant in Sprague-Dawley rat at 1.8 mg/kg, iv measured for 24 hrs by LC-MS/MS analysis; type: ADME, organism-based; settings: in vivo
[6] = Half life in Sprague-Dawley rat at 1.8 mg/kg, iv measured for 24 hrs by LC-MS/MS analysis; type: ADME, organism-based; settings: in vivo
[7] = MRT (0 to t) in Sprague-Dawley rat at 1.8 mg/kg, iv measured for 24 hrs by LC-MS/MS analysis; type: ADME, organism-based; settings: in vivo
[8] = MRT (0 to infinity) in Sprague-Dawley rat at 1.8 mg/kg, iv measured for 24 hrs by LC-MS/MS analysis; type: ADME, organism-based; settings: in vivo
[9] = AUC (0 to t) in Sprague-Dawley rat at 1.8 mg/kg, iv measured for 24 hrs by LC-MS/MS analysis; type: ADME, organism-based; design: time 24 hrs, dose 1.8 mg/kg, route iv; settings: in vivo
[10] = AUC (0 to infinity) in Sprague-Dawley rat at 1.8 mg/kg, iv measured for 24 hrs by LC-MS/MS analysis; type: ADME, organism-based; design: dose 1.8 mg/kg, time 24 hrs, route iv; settings: in vivo
[11] = Clearance in Sprague-Dawley rat at 1.8 mg/kg, iv measured for 24 hrs by LC-MS/MS analysis; type: ADME, organism-based; settings: in vivo
[12] = Volume of distribution at steady state in Sprague-Dawley rat at 1.8 mg/kg, iv measured for 24 hrs by LC-MS/MS analysis; type: ADME, organism-based; settings: in vivo, read-out: Vdss
[13] = Elimination rate constant in Sprague-Dawley rat at 25 mg/kg, IG measured for 24 hrs by LC-MS/MS analysis; type: ADME, organism-based; settings: in vivo, po
[14] = Half life in Sprague-Dawley rat at 25 mg/kg, IG measured for 24 hrs by LC-MS/MS analysis; type: ADME, organism-based; settings: in vivo, po
[15] = Tmax in Sprague-Dawley rat at 25 mg/kg, IG measured for 24 hrs by LC-MS/MS analysis; type: ADME, organism-based; settings: in vivo, po
[16] = Cmax in Sprague-Dawley rat at 25 mg/kg, IG measured for 24 hrs by LC-MS/MS analysis; type: ADME, organism-based; design: dose 25 mg/kg, time 24 hrs, route ig; settings: in vivo, po
[17] = MRT (0 to t) in Sprague-Dawley rat at 25 mg/kg, IG measured for 24 hrs by LC-MS/MS analysis; type: ADME, organism-based; settings: in vivo, po
[18] = MRT (0 to infinity) in Sprague-Dawley rat at 25 mg/kg, IG measured for 24 hrs by LC-MS/MS analysis; type: ADME, organism-based; settings: in vivo, po
[19] = AUC (0 to t) in Sprague-Dawley rat at 25 mg/kg, IG measured for 24 hrs by LC-MS/MS analysis; type: ADME, organism-based; design: dose 25 mg/kg, time 24 hrs, route ig; settings: in vivo, po
[20] = AUC (0 to infinity) in Sprague-Dawley rat at 25 mg/kg, IG measured for 24 hrs by LC-MS/MS analysis; type: ADME, organism-based; design: time 24 hrs, dose 25 mg/kg, route ig; settings: in vivo, po
[21] = Oral bioavailability in Sprague-Dawley rat at 25 mg/kg measured for 24 hrs by LC-MS/MS analysis; type: ADME, organism-based; settings: in vivo
[22] = target: T1, Androgen receptor (Homo sapiens) (UniProt P10275); assay: Inhibition of androgen receptor transfected in human HEK293T cells incubated for 24 to 72 hrs by Western blot analysis; type: cell-based; settings: dose 0.5-1 µM, time 24-72 hrs
T1 sequence (whole entry): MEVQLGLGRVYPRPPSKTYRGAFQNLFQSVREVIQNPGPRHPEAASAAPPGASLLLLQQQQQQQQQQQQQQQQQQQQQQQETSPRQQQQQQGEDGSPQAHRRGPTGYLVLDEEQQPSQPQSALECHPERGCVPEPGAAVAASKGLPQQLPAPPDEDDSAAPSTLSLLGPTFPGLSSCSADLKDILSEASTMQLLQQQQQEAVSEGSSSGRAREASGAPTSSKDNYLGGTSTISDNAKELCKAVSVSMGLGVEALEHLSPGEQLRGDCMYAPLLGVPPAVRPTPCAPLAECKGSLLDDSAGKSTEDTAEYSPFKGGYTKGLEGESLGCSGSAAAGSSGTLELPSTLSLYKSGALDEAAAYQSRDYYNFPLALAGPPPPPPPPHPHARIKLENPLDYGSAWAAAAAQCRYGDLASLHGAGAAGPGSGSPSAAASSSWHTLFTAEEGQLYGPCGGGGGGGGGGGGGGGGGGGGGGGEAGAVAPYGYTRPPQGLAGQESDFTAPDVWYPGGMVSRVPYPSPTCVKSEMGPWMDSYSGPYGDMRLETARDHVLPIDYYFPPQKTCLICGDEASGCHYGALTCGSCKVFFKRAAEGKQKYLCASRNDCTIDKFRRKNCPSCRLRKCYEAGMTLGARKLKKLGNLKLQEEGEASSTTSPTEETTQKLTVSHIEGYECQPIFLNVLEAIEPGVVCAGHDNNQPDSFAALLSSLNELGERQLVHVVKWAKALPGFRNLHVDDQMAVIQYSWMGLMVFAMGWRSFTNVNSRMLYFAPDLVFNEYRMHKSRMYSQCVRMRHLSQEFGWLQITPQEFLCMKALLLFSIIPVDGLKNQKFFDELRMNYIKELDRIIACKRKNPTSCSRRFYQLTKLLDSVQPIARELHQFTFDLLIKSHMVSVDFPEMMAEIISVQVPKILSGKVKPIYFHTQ

[23] = target: T1, Androgen receptor (Homo sapiens); assay: Inhibition of androgen receptor transfected in human HEK293T cells at 0.5 to 1 uM by Western blot analysis; type: cell-based; settings: dose 0.5-1 µM, time 24-72 hrs, TDE = time-dependent effect
[24] = test system: HEK-293T; assay: Downregulation of AR-v1 expression transfected in human HEK293T cells at 0.5 to 1 uM incubated for 24 to 72 hrs by Western blot analysis; type: functional, cell-based; settings: dose 0.5-1 µM, time 24-72 hrs
[25] = test system: LNCaP; assay: Inhibition of cell viability in AR-dependent human LNCaP cells by Steady-Glo luciferase assay; type: functional, cell-based
[26] = test system: LNCaP C4-2B; assay: Inhibition of cell viability in AR-dependent human LNCaP C4-2B cells by Steady-Glo luciferase assay; type: functional, cell-based
[27] = test system: DU-145; assay: Inhibition of cell viability in AR-independent human DU-145 cells by Steady-Glo luciferase assay; type: functional, cell-based
[28] = Inhibition of cell viability in human adipose stromal cells by CCK8 assay; type: toxicity, cell-based
[29] = target: T1, Androgen receptor (Homo sapiens); assay: Inhibition of androgen receptor in human 22Rv1 cells assessed as decrease in HGF mRNA level at 1 uM incubated for 36 hrs by RNA sequencing analysis; type: cell-based
[30] = test system: CWR22R; assay: Antitumor activity against human 22Rv1 cells xenografted in SCID C.B17 mouse assessed as tumor growth inhibition by measuring tumor volume at 50 mg/kg/day, IG measured for 21 days by caliper method; type: functional, organism-based; settings: time 21.0 day
[31] = test system: CWR22R; assay: Antitumor activity against human 22Rv1 cells xenografted in SCID C.B17 mouse assessed as tumor growth inhibition by measuring tumor weight at 50 mg/kg/day, IG measured for 21 days by caliper method; type: functional, organism-based; settings: time 21.0 day
[32] = Toxicity in SCID C.B17 mouse xenografted with human 22Rv1 cells assessed as body weight loss at 50 mg/kg/day, IG measured for 21 days; type: organism-based, CWR22R; settings: in vivo, po, 504 h, time 21 day
[33] = Distribution coefficient, logD of compound by chromatography; type: physicochemical; settings: octanol/water
[34] = Metabolic stability in mouse liver microsomes assessed as half life; type: ADME, Microsome
[35] = Metabolic stability in mouse liver microsomes assessed as intrinsic clearance measured per mg protein; type: ADME, Microsome; settings: read-out: CLH

O=c1cnc(-c2ccccc2)nn1-c1ccccc1
IC50 [1]: 2190 nM
IC50 [2]: > 10000 nM

Cc1nc(Cn2nc(-c3ccccc3)ncc2=O)cs1
IC50 [1]: 690 nM
IC50 [2]: 4370 nM
Drug uptake [3]: Not Active

O=c1cnc(-c2ccccc2)nn1Cc1ccc(Cl)cc1
IC50 [1]: 600 nM
IC50 [2]: 10900 nM
Drug uptake [3]: Not Active

N#CCCCn1nc(-c2ccccc2)ncc1=O
IC50 [1]: 3030 nM
IC50 [2]: 42900 nM

O=c1cnc(Cc2ccccc2)nn1Cc1ccc(Cl)c(Cl)c1
IC50 [1]: 200 nM
IC50 [2]: 2140 nM
Drug uptake [3]: Not Active

O=c1cnc(Cc2ccccc2)nn1Cc1ccccc1
IC50 [1]: 740 nM
IC50 [2]: 9790 nM

O=c1cnc(Cc2ccccc2)nn1CC1CC1
IC50 [1]: 390 nM
IC50 [2]: 600 nM

CC(C)n1nc(-c2ccccc2)ncc1=O
IC50 [1]: 920 nM
IC50 [2]: 32500 nM

COc1ccc(Cn2nc(-c3cccc(OC)c3)ncc2=O)cc1
IC50 [1]: 3120 nM
IC50 [2]: > 10000 nM

O=c1cnc(-c2cccc(Br)c2)nn1Cc1cccc(Cl)c1
IC50 [1]: 3250 nM
IC50 [2]: 11800 nM

O=c1cnc(-c2ccccc2)nn1Cc1cccc(C(F)(F)F)c1
IC50 [1]: 220 nM
IC50 [2]: 5280 nM
Drug uptake [3]: Not Active

O=c1cnc(Cc2ccccc2)nn1Cc1ccc(Cl)cc1Cl
IC50 [1]: 180 nM
IC50 [2]: 1480 nM
Drug uptake [3]: Active
C0 at 24 h [4]: 12600 ng/mL
k el at 24 h [5]: 2.5e-05 s⁻¹
half-life [6]: 8.02 h
MRT last at 24 h [7]: 5.05 h
MRT inf [8]: 7.65 h
AUC(0-t) at 24 h [9]: 14300 ng·h/mL
AUC(0-inf) [10]: 15700 ng·h/mL
clearance [11]: 2.02 mL/min/kg
Vd [12]: 0.87 L/kg
k el at 24 h [13]: 4.17e-05 s⁻¹
half-life [14]: 4.59 h
Tmax [15]: 4 h
Cmax [16]: 1910 ng/mL
MRT last at 24 h [17]: 8.4 h
MRT inf [18]: 9.27 h
AUC(0-t) at 24 h [19]: 26500 ng·h/mL
AUC(0-inf) [20]: 27500 ng·h/mL
bioavailability [21]: 12.6%
inhibition [22]: Dose-Dependent Effect
inhibition [23]: Tde
Activity [24]: inactive
IC50 [25]: 170 nM
IC50 [26]: 320 nM
IC50 [27]: 1850 nM
IC50 [28]: 3330 nM
inhibition [29]: Active
TGI [30]: Active
TGI [31]: Active
Activity [32]: Non-Toxic

O=c1cnc(Cc2ccccc2)nn1Cc1cccc(C(F)(F)F)c1
IC50 [1]: 130 nM
IC50 [2]: 2520 nM
Drug uptake [3]: Not Active

O=c1cnc(-c2ccccc2)nn1-c1ccc(Cl)cc1
IC50 [1]: 1400 nM
IC50 [2]: 3340 nM

O=c1cnc(Cc2ccccc2)nn1CC1CCCCC1
IC50 [1]: 3230 nM
IC50 [2]: 2940 nM

O=c1cnc(-c2cccc(Cl)c2)nn1Cc1cccc(Cl)c1
IC50 [1]: 2660 nM
IC50 [2]: 11400 nM

CC(C)CCn1nc(-c2ccccc2)ncc1=O
IC50 [1]: 640 nM
IC50 [2]: 10800 nM

O=c1cnc(-c2ccccc2)nn1C1CCCC1
IC50 [1]: 490 nM
IC50 [2]: 10100 nM
chromatographic logD [33]: 3.8
half-life [34]: 0.1 h
microsomal CLint [35]: 296 µL/min/mg

O=c1cnc(-c2ccccc2)nn1Cc1ccc(Cl)nc1
IC50 [1]: 90 nM
IC50 [2]: 3230 nM
Drug uptake [3]: Not Active

COc1cccc(-c2ncc(=O)n(Cc3ccc(Cl)cc3Cl)n2)c1
IC50 [1]: 150 nM
IC50 [2]: 430 nM

O=c1cnc(-c2ccccc2)nn1Cc1ccccc1Cl
IC50 [1]: 270 nM
IC50 [2]: 2550 nM
chromatographic logD [33]: 4.3
half-life [34]: 0.167 h
microsomal CLint [35]: 181 µL/min/mg

COc1cccc(-c2ncc(=O)n(Cc3ccc(Cl)c(Cl)c3)n2)c1
IC50 [1]: 3310 nM
IC50 [2]: > 10000 nM

Source: ChEMBL document CHEMBL5335810, “1,3-Disubstituted-1,2,4-triazin-6-ones with potent activity against androgen receptor-dependent prostate cancer cells” (Bioorg Med Chem, 2024)
